This note sets out measurements from patent US20110034418A1, “PHARMACEUTICAL COMPOSITION WITH BISPHOSPHONATE” (priority 2008, published 2011).

For this assay, the target named is T1, Human farnesyl pyrophosphate synthase (FPPS, Swissprot ID: P14324) (Homo sapiens, UniProt P14324).
T1 construct: made in house
T1 sequence (P14324 67-419 limits assumed): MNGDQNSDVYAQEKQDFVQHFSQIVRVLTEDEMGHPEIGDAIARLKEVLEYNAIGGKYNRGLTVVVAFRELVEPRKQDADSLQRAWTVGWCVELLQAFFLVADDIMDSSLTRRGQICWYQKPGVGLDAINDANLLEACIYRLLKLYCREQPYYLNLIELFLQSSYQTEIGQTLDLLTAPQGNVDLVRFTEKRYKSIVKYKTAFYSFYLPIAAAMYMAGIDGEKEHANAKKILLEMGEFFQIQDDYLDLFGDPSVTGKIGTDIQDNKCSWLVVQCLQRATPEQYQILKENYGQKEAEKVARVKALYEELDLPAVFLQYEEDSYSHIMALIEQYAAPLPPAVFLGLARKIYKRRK
In words: label-free LC/MS/MS assay for farnesyl pyrophosphate synthase (FPPS), cell-free in vitro. The assay is classed as biochemical. Particulars: 5 min pre-incubation, GPP/IPP substrates, FPP quantified by LC/MS/MS. As for the experimental part: For example, in a cell-free in vitro assay the superiority of compounds of the formula I over compounds already known can be shown. Briefly, the reaction proceeds in the presence of enzyme and an inhibitor of the formula I, and the reaction product (farneysyl pyrophosphate) is quantified by LC/MS/MS.
In detail, the inhibitor and enzyme are pre-incubated before adding the substrates
The assay is a label-free assay for farnesyl pyrophosphate synthase (FPPS) based on LC/MS/MS. This method quantifies in-vitro untagged farnesyl pyrophosphate (FPP) and is suitable for high throughput screening (HTS) to find inhibitors of FPPS and for the determinations of IC50 values of candidate compounds. The analysis time is 2.0 minutes with a total cycle time of 2.5 minutes. The analysis can be formatted for 384-well plates resulting in an analysis time of 16 hours per plate.
Pentanol, methanol, and isopropyl alcohol are HPLC grade and obtained from Fisher Scientific. DMIPA is from Sigma-Aldrich. Water is from an in-house Milli-Q system. […]
The Multiple Reaction Monitoring (MRM) transitions monitored are 381−>79− for FPP and 397−>159− for FSPP at a collision energy of 22 eV and a collision cell pressure of 2.1×10^−3 mbar of Ar. […]
The total cycle time per sample is 2.5 minutes. Since the analysis is formatted for 384-well plates, a plate is analyzed in 16 hours. […]

In general, IC50 refers to the concentration at which inhibition is half-maximal. Lower therefore signals greater potency in that assay. In turn, `CCc1cncn1CC(O)(P(=O)(O)O)P(=O)(O)O` [Reference-Example 2, [2-(5-Ethyl-imidazol-1-yl)-1-hydroxy-1-phosphono-ethyl]-phosphonic acid] displayed an IC50 of 2.4 to 3.1 nM.
